Values after ≈ are worked out from the molar mass of the structure shown. Active and inactive are the calls of the source. The calls are words filed in the database; no cut-off is given here.
Key:
Staphylococcus aureus [1] = experiment: Antibacterial activity against methicillin-resistant Staphylococcus aureus USA300 incubated for 18 to 20 hrs by broth microdilution method; assay type: functional; conditions: time 18-20 hrs
Staphylococcus aureus [2] = experiment: Antibacterial activity against methicillin-resistant Staphylococcus aureus NRS 119 incubated for 18 to 20 hrs by broth microdilution method; assay type: functional; conditions: time 18-20 hrs
Staphylococcus aureus [3] = experiment: Antibacterial activity against methicillin-resistant Staphylococcus aureus USA300 infected in BALB/c mouse assessed as reduction in bacterial count administered 72 hrs post infection topically twice daily for 4 days; assay type: functional, organism-based; conditions: time 4.0 day
Staphylococcus aureus [4] = experiment: Potentiation of vancomycin-induced antibacterial activity against vancomycin-resistant Staphylococcus aureus 2 assessed as vancomycin MIC at 0.5 times MIC incubated for 18 to 20 hrs by broth microdilution method; assay type: functional; conditions: time 18-20 hrs
Staphylococcus aureus [5] = experiment: Antibacterial activity against Vancomycin-resistant Staphylococcus aureus 10 incubated for 18 to 20 hrs by broth microdilution method; assay type: functional; conditions: time 18-20 hrs
[6] = system: Staphylococcus epidermidis; experiment: Antibacterial activity against Staphylococcus epidermidis NRS 101 incubated for 18 to 20 hrs by broth microdilution method; assay type: functional; conditions: time 18-20 hrs
Staphylococcus aureus [7] = experiment: Antibacterial activity against methicillin-sensitive Staphylococcus aureus NRS 107 incubated for 18 to 20 hrs by broth microdilution method; assay type: functional; conditions: time 18-20 hrs
[8] = Hemolytic activity in rabbit erythrocytes at 32 ug/ml incubated for 30 min by absorbance based analysis relative to control; assay type: toxicity, cell-based, Oryctolagus cuniculus, Erythrocyte; conditions: at 32 µg/mL, read-out: Activity
Caco-2 [9] = experiment: Cytotoxicity against human Caco-2 cells at 128 ug/ml incubated for 24 hrs by MTS assay; assay type: toxicity, cell-based; conditions: caco-2, 24 h, dose 128 µg/ml
Caco-2 [10] = experiment: Cytotoxicity against human Caco-2 cells assessed as reduction in cell viability at 64 ug/ml incubated for 24 hrs by MTS assay; assay type: toxicity, cell-based; conditions: caco-2, 24 h, dose 64 µg/ml
Staphylococcus aureus [11] = experiment: Antibacterial activity against methicillin-resistant Staphylococcus aureus NRS 384 (USA300) incubated for 18 to 20 hrs by broth microdilution method; assay type: functional; conditions: time 18-20 hrs
Staphylococcus aureus [12] = experiment: Potentiation of vancomycin-induced antibacterial activity against vancomycin-resistant Staphylococcus aureus 13 assessed as vancomycin MIC at 0.5 times MIC incubated for 18 to 20 hrs by broth microdilution method; assay type: functional; conditions: time 18-20 hrs
[13] = Hemolytic activity in rabbit erythrocytes at 64 ug/ml incubated for 30 min by absorbance based analysis relative to control; assay type: toxicity, cell-based, Oryctolagus cuniculus, Erythrocyte; conditions: at 64 µg/mL, read-out: Activity
Staphylococcus aureus [14] = experiment: Antibacterial activity against methicillin-sensitive Staphylococcus aureus ATCC 6538 incubated for 18 to 20 hrs by broth microdilution method; assay type: functional; conditions: time 18-20 hrs
Staphylococcus aureus [15] = experiment: Antibacterial activity against methicillin-resistant Staphylococcus aureus USA300 infected in BALB/c mouse assessed as reduction in bacterial count in spleen administered 72 hrs post infection topically twice daily for 4 days; assay type: functional, organism-based; conditions: time 4.0 day
Staphylococcus aureus [16] = experiment: Antibacterial activity against methicillin-resistant Staphylococcus aureus NRS 123 (USA400) incubated for 18 to 20 hrs by broth microdilution method; assay type: functional; conditions: time 18-20 hrs
Staphylococcus aureus [17] = experiment: Antibacterial activity against Vancomycin-resistant Staphylococcus aureus 9 incubated for 18 to 20 hrs by broth microdilution method; assay type: functional; conditions: time 18-20 hrs
Staphylococcus aureus [18] = experiment: Potentiation of vancomycin-induced antibacterial activity against vancomycin-resistant Staphylococcus aureus 3b assessed as vancomycin MIC at 0.5 times MIC incubated for 18 to 20 hrs by broth microdilution method; assay type: functional; conditions: time 18-20 hrs
Staphylococcus aureus [19] = experiment: Antibacterial activity against Vancomycin-resistant Staphylococcus aureus 12 incubated for 18 to 20 hrs by broth microdilution method; assay type: functional; conditions: time 18-20 hrs
Staphylococcus aureus [20] = experiment: Antibacterial activity against methicillin-resistant Staphylococcus aureus NRS 385 (USA500) incubated for 18 to 20 hrs by broth microdilution method; assay type: functional; conditions: time 18-20 hrs
Staphylococcus aureus [21] = experiment: Potentiation of vancomycin-induced antibacterial activity against vancomycin-resistant Staphylococcus aureus 9 assessed as vancomycin MIC at 0.5 times MIC incubated for 18 to 20 hrs by broth microdilution method; assay type: functional; conditions: time 18-20 hrs
[22] = Cytotoxicity against human HaCaT cells assessed as cell viability at 64 ug/ml incubated for 24 hrs by MTS assay relative to control; assay type: toxicity, cell-based; conditions: at 64 µg/mL, read-out: Activity
Staphylococcus aureus [23] = experiment: Antibacterial activity against methicillin-resistant Staphylococcus aureus NRS 386 (USA700) incubated for 18 to 20 hrs by broth microdilution method; assay type: functional; conditions: time 18-20 hrs
Staphylococcus aureus [24] = experiment: Potentiation of vancomycin-induced antibacterial activity against vancomycin-resistant Staphylococcus aureus 10 assessed as vancomycin MIC at 0.5 times MIC incubated for 18 to 20 hrs by broth microdilution method; assay type: functional; conditions: time 18-20 hrs
Staphylococcus aureus [25] = experiment: Antibacterial activity against methicillin-resistant Staphylococcus aureus USA300 infected in BALB/c mouse assessed as recovery of body weight loss administered 72 hrs post infection topically twice daily for 4 days; assay type: functional, organism-based; conditions: time 4.0 day
Erythrocyte = experiment: Hemolytic activity in rabbit erythrocytes at 128 ug/ml incubated for 30 min by absorbance based analysis; assay type: toxicity, cell-based, Oryctolagus cuniculus; conditions: 0.5 h, dose 128 µg/ml
Staphylococcus aureus [26] = experiment: Potentiation of vancomycin-induced antibacterial activity against vancomycin-resistant Staphylococcus aureus 3 assessed as vancomycin MIC at 0.5 times MIC incubated for 18 to 20 hrs by broth microdilution method; assay type: functional; conditions: time 18-20 hrs
Staphylococcus aureus [27] = experiment: Potentiation of vancomycin-induced antibacterial activity against vancomycin-resistant Staphylococcus aureus 1 assessed as vancomycin MIC at 0.5 times MIC incubated for 18 to 20 hrs by broth microdilution method; assay type: functional; conditions: time 18-20 hrs
Staphylococcus aureus [28] = experiment: Potentiation of vancomycin-induced antibacterial activity against vancomycin-resistant Staphylococcus aureus 12 assessed as vancomycin MIC at 0.5 times MIC incubated for 18 to 20 hrs by broth microdilution method; assay type: functional; conditions: time 18-20 hrs
Staphylococcus aureus [29] = experiment: Antibacterial activity against methicillin-resistant Staphylococcus aureus USA400 NRS 123 assessed as time of post-antibiotic effect at 5 times MIC incubated for 2 hrs followed by compound washout and measured every single 1 hr; assay type: functional
[30] = Cytotoxicity against human Caco-2 cells assessed as cell viability at upto 128 ug/ml incubated for 24 hrs by MTS assay relative to control; assay type: toxicity, cell-based; conditions: up to 128 µg/mL, read-out: Activity
Staphylococcus aureus [31] = experiment: Induction of drug resistance in methicillin-resistant Staphylococcus aureus USA400 NRS 123 assessed as fold increase in MIC measured after 7 passages by broth microdilution assay; assay type: functional
Staphylococcus aureus [32] = experiment: Induction of drug resistance in methicillin-resistant Staphylococcus aureus USA400 NRS 123 assessed as fold increase in MIC measured after 15 passages by broth microdilution assay; assay type: functional
[33] = Cytotoxicity against human HaCaT cells assessed as cell viability upto 128 ug/ml incubated for 24 hrs by MTS assay relative to control; assay type: toxicity, cell-based; conditions: up to 128 µg/mL, read-out: Activity

Compound	MIC (Staphylococcus aureus [1])	MIC (Staphylococcus aureus [2])	MIC (Staphylococcus aureus [5])	MIC [6]	MIC (Staphylococcus aureus [7])	MIC (Staphylococcus aureus [11])	MIC (Staphylococcus aureus [14])	MIC (Staphylococcus aureus [16])	MIC (Staphylococcus aureus [17])	MIC (Staphylococcus aureus [19])	MIC (Staphylococcus aureus [20])	MIC (Staphylococcus aureus [23])	Time (Staphylococcus aureus [29])	also measured
C/C(=N\NC(=N)N)c1ccc(NC(=O)Nc2ccc(-c3ccc4ccccc4c3)cc2)cc1	4 mg/L (≈ 9.16 µM)													
C/C(=N\NC(=N)N)c1ccc(NC(=O)Nc2ccc(C3CC3)cc2)cc1	≥ 64 mg/L													
C/C(=N\NC(=N)N)c1ccc(NC(=O)Nc2ccc(/C=C/CC(C)C)cc2)cc1		4 mg/L (≈ 10.2 µM)	8 mg/L (≈ 20.4 µM)	4 mg/L (≈ 10.2 µM)	4 mg/L (≈ 10.2 µM)	2 mg/L (≈ 5.1 µM)	4 mg/L (≈ 10.2 µM)	4 mg/L (≈ 10.2 µM)	4 mg/L (≈ 10.2 µM)	8 mg/L (≈ 20.4 µM)	4 mg/L (≈ 10.2 µM)	4 mg/L (≈ 10.2 µM)	5 h	Activity (Staphylococcus aureus [3]): Active; MIC (Staphylococcus aureus [4]): 4 mg/L; hemolysis at 0.5 h, 32 ug/ml [8]: < 10%; Activity (Caco-2 [9]): Toxic; Activity (Caco-2 [10]): Non-Toxic; MIC (Staphylococcus aureus [12]): 16 mg/L; hemolysis at 0.5 h, 64 ug/ml [13]: 50%; Activity (Staphylococcus aureus [15]): Active; MIC (Staphylococcus aureus [18]): 8 mg/L; MIC (Staphylococcus aureus [21]): 16 mg/L; viability at 24 h, 64 ug/ml [22]: 100%; MIC (Staphylococcus aureus [24]): 16 mg/L; Activity (Staphylococcus aureus [25]): Active; Activity (Erythrocyte): Toxic; MIC (Staphylococcus aureus [26]): 2 mg/L; MIC (Staphylococcus aureus [27]): 4 mg/L; MIC (Staphylococcus aureus [28]): 64 mg/L
C/C(=N\NC(=N)N)c1ccc(NC(=O)Nc2ccc(/C=C/C3CCCCC3)cc2)cc1		4 mg/L (≈ 9.56 µM)	8 mg/L (≈ 19.1 µM)	8 mg/L (≈ 19.1 µM)	4 mg/L (≈ 9.56 µM)	2 mg/L (≈ 4.78 µM)	4 mg/L (≈ 9.56 µM)	4 mg/L (≈ 9.56 µM)	8 mg/L (≈ 19.1 µM)	8 mg/L (≈ 19.1 µM)	8 mg/L (≈ 19.1 µM)	8 mg/L (≈ 19.1 µM)	6 h	viability at 24 h, 64 ug/ml [22]: 100%; viability at 24 h [30]: 100%
CC(=O)O[C@H]1C[C@@]2(C)[C@@H](C[C@@H](O)[C@H]3[C@@]4(C)CC[C@@H](O)[C@@H](C)[C@@H]4CC[C@@]32C)/C1=C(\CCC=C(C)C)C(=O)O														Activity (Staphylococcus aureus [3]): Active; Activity (Staphylococcus aureus [15]): Active; Activity (Staphylococcus aureus [25]): Active
C/C(=N\NC(=N)N)c1ccc(NC(=O)Nc2ccc(-c3cccc(C)c3)cc2)cc1	4 mg/L (≈ 9.99 µM)													
C/C(=N\NC(=N)N)c1ccc(NC(=O)Nc2ccc(-c3ccccn3)cc2)cc1	4 mg/L (≈ 10.3 µM)													
C/C(=N\NC(=N)N)c1ccc(NC(=O)Nc2ccc(-c3cc4ccccc4o3)cc2)cc1	4 mg/L (≈ 9.38 µM)													
CO[C@H]1/C=C/O[C@@]2(C)Oc3c(C)c(O)c4c(O)c(c(/C=N/N5CCN(C)CC5)c(O)c4c3C2=O)NC(=O)/C(C)=C\C=C\[C@H](C)[C@H](O)[C@@H](C)[C@@H](O)[C@@H](C)[C@H](OC(C)=O)[C@@H]1C														fold change (FC) (Staphylococcus aureus [31]): 8; fold change (FC) (Staphylococcus aureus [32]): > 500000
C/C(=N\NC(=N)N)c1ccc(NC(=O)Nc2ccc(-c3cccs3)cc2)cc1	4 mg/L (≈ 10.2 µM)	16 mg/L (≈ 40.8 µM)	16 mg/L (≈ 40.8 µM)	8 mg/L (≈ 20.4 µM)	2 mg/L (≈ 5.1 µM)	4 mg/L (≈ 10.2 µM)	4 mg/L (≈ 10.2 µM)	4 mg/L (≈ 10.2 µM)	8 mg/L (≈ 20.4 µM)	8 mg/L (≈ 20.4 µM)	8 mg/L (≈ 20.4 µM)	4 mg/L (≈ 10.2 µM)	3 h	viability at 24 h [33]: 100%; viability at 24 h [30]: 100%; fold change (FC) (Staphylococcus aureus [32]): 1
C/C(=N\NC(=N)N)c1ccc(NC(=O)Nc2ccc(-c3ccoc3)cc2)cc1	4 mg/L (≈ 10.6 µM)													
C/C(=N\NC(=N)N)c1ccc(NC(=O)Nc2ccc(-c3ccco3)cc2)cc1	4 mg/L (≈ 10.6 µM)	4 mg/L (≈ 10.6 µM)	4 mg/L (≈ 10.6 µM)	2 mg/L (≈ 5.31 µM)	8 mg/L (≈ 21.3 µM)	4 mg/L (≈ 10.6 µM)	2 mg/L (≈ 5.31 µM)	2 mg/L (≈ 5.31 µM)	4 mg/L (≈ 10.6 µM)	4 mg/L (≈ 10.6 µM)	8 mg/L (≈ 21.3 µM)	2 mg/L (≈ 5.31 µM)	5 h	MIC (Staphylococcus aureus [4]): 8 mg/L; hemolysis at 0.5 h, 32 ug/ml [8]: < 2%; MIC (Staphylococcus aureus [12]): 512 mg/L; MIC (Staphylococcus aureus [18]): 8 mg/L; MIC (Staphylococcus aureus [21]): 128 mg/L; viability at 24 h, 64 ug/ml [22]: 100%; viability at 24 h [30]: 100%; MIC (Staphylococcus aureus [24]): 8 mg/L; Activity (Staphylococcus aureus [25]): Active; MIC (Staphylococcus aureus [26]): 2 mg/L; MIC (Staphylococcus aureus [27]): 2 mg/L; MIC (Staphylococcus aureus [28]): 512 mg/L
C/C(=N\NC(=N)N)c1ccc(NC(=O)Nc2ccc(-c3cc4ccccc4s3)cc2)cc1	4 mg/L (≈ 9.04 µM)													

— ChEMBL document CHEMBL5154795, “Exploring the structure-activity relationships of diphenylurea as an antibacterial scaffold active against methicillin- and vancomycin-resistant Staphylococcus aureus” (Eur J Med Chem, 2022)
